From the supplement of paper PMC10627819

Legend:
S. pneumoniae D39V [1] = test: fitness (endpoint OD595 vs no drug) (fraction); higher = more growth
Summary of the method: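 Bacterial growth was followed in 384-well plates seeded at OD595 0.01, with 30 µl per well, or 55 µl for S. pneumoniae, in TSB, LB Lennox or CY at 37 °C. OD595 was read every 30 min for 14 h, and each reading had the first reading subtracted as background. Fitness is the background-corrected optical density at entry into stationary phase divided by the robust mean of the no-drug control wells. This ratio is capped at 1.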

B. subtilis 168 = test: Bliss interaction score (quartile over a dose matrix) (fitness difference); higher = more antagonism (negative = synergy)
Summary of the method: (§1)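 Values were capped at 1 after dividing OD595 at stationary-phase entry by the plate's robust no-drug mean. This ratio is fitness, and single-drug fitness was inferred from the combination data. The Bliss score is observed minus product-expected fitness, given as quartiles over technical, biological and donor/recipient replicates.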

S. aureus DSM 20231 = test: as above
Summary of the method: as §1

S. aureus Newman = test: as above
Summary of the method: as §1

S. pneumoniae D39V [2] = test: as above
Summary of the method: as §1
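Wherever Bliss interaction score (quartile over a dose matrix) is given: first quartile when negative (synergy) and third quartile when positive (antagonism).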

Clc1ccc(COC(Cn2ccnc2)c2ccc(Cl)cc2Cl)c(Cl)c1 (stereo not given) [Miconazole] + O=C1CN(/N=C/c2ccc([N+](=O)[O-])o2)C(=O)N1 [Nitrofurantoin]
fitness, S. pneumoniae D39V [1]
Settings | first compound 1.073 µg/mL | first compound 1.25 µg/mL | first compound 2.145 µg/mL | first compound 2.5 µg/mL | first compound 4.29 µg/mL | first compound 5 µg/mL
partner 1.285 µg/mL | – | 0.987 | – | 0.959 | – | 0.945
partner 2 µg/mL | 0.972 | – | ≥ 1 | – | 0.93 | –
partner 2.57 µg/mL | – | 0.968 | – | 0.954 | – | 0.936
partner 4 µg/mL | 0.988 | – | ≥ 1 | – | 0.949 | –
partner 8 µg/mL | 0.92 | – | 0.951 | – | 0.919 | –

S. pneumoniae D39V [1], partner 5.14 µg/mL, one replicate
Settings | fitness
first compound 1.25 µg/mL | 0.897
first compound 2.5 µg/mL | 0.848
first compound 5 µg/mL | 0.847

Settings | Bliss interaction score
B. subtilis 168 | -0.125
S. aureus DSM 20231 | 0.0458
S. aureus Newman | -0.0579
S. pneumoniae D39V [2] | 0.091

Clc1ccc(COC(Cn2ccnc2)c2ccc(Cl)cc2Cl)c(Cl)c1 (stereo not given) [Miconazole] + CCN(CC)CCOC(=O)c1ccc(N)cc1 [Procaine]
fitness, S. pneumoniae D39V [1]
Settings | first compound 1.073 µg/mL | first compound 2.145 µg/mL | first compound 4.29 µg/mL
partner 85.5 µg/mL | ≥ 1 | ≥ 1 | 0.936
partner 171 µg/mL | 0.993 | 0.999 | 0.899
partner 342 µg/mL | 0.997 | ≥ 1 | 0.871

fitness, S. pneumoniae D39V [1], one replicate
Settings | first compound 1.25 µg/mL | first compound 2.5 µg/mL | first compound 5 µg/mL
partner 85.5 µg/mL | 0.983 | ≥ 1 | ≥ 1
partner 171 µg/mL | 0.971 | 0.976 | 0.992
partner 342 µg/mL | 0.968 | 0.992 | ≥ 1

Settings | Bliss interaction score
B. subtilis 168 | 0.0691
S. aureus DSM 20231 | 0.0418
S. aureus Newman | -0.0389
S. pneumoniae D39V [2] | 0.0592

Clc1ccc(COC(Cn2ccnc2)c2ccc(Cl)cc2Cl)c(Cl)c1 (stereo not given) [Miconazole] + CN(N=O)C(=O)N[C@@H](C=O)[C@@H](O)[C@H](O)[C@H](O)CO [Streptozotocin]
fitness, S. pneumoniae D39V [1]
Settings | first compound 1.073 µg/mL | first compound 2.145 µg/mL | first compound 4.29 µg/mL
partner 1.2 µg/mL | 0.997 | 0.982 | 0.939
partner 2.4 µg/mL | 0.989 | 0.988 | 0.938
partner 4.8 µg/mL | ≥ 1 | 0.977 | 0.923

fitness, S. pneumoniae D39V [1], one replicate
Settings | first compound 1.25 µg/mL | first compound 2.5 µg/mL | first compound 5 µg/mL
partner 1.2 µg/mL | 0.924 | 0.903 | 0.942
partner 2.4 µg/mL | 0.971 | 0.94 | ≥ 1
partner 4.8 µg/mL | 0.788 | 0.813 | 0.841

Settings | Bliss interaction score
B. subtilis 168 | 0.143
S. aureus DSM 20231 | 0.039
S. aureus Newman | 0.0421
S. pneumoniae D39V [2] | 0.0621

CC1=C(C(=O)O)N2C(=O)[C@@H](NC(=O)[C@H](N)c3ccccc3)[C@H]2SC1 [Cephalexin] + Oc1cc(Cl)ccc1Oc1ccc(Cl)cc1Cl [Triclosan]
Settings | Bliss interaction score
B. subtilis 168 | 0.0637
S. aureus DSM 20231 | 0.0867
S. aureus Newman | 0.024
S. pneumoniae D39V [2] | 0.0582
